From PubChem BioAssay (NCI) come the findings set out here.

Structures are written as SMILES.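 Five concentrations, 48 hours, 96-well plates. The concentration for full growth arrest is given as TGI.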

Some test systems named below: RXF 393 renal; TK-10 renal; HL-60(TB) leukemia; MCF7 breast; SK-MEL-2 melanoma; UACC-62 melanoma; SK-MEL-28 melanoma; LOX IMVI melanoma; OVCAR-3 ovarian; HCC-2998 colon.
Holding throughout (assay): growth of human tumour cells (NCI), 48 h

Regarding `COC(CNC(=O)CNC(=O)c1ccc(C(F)(F)F)cc1)OC`, the TGI in the assay on RXF 393 renal, in the assay with TK-10 renal, in the assay on HL-60(TB) leukemia, in the assay on MCF7 breast, in the assay with SK-MEL-2 melanoma and with UACC-62 melanoma was above 100 µM each time.
On to `CCOC(=O)c1c(N2CCCC2)[nH]c(=O)c(C(c2c(O)c(C(=O)OCC)c(N3CCCC3)[nH]c2=O)C(C)C)c1O`, for which the TGI in the assay with RXF 393 renal, in the assay with SK-MEL-28 melanoma, with TK-10 renal, in the assay on LOX IMVI melanoma, in the assay with MCF7 breast and in the assay on OVCAR-3 ovarian was above 100 µM throughout. Moreover, the TGI with UACC-62 melanoma and with HCC-2998 colon was above 100 µM in each case.
Consider `CCOC(=O)Oc1cc2ccsc2c2c1c1ccccc1n2C(=O)OCC`, for which the TGI in the assay with RXF 393 renal is 45.8 µM; with SK-MEL-28 melanoma, above 100 µM; with TK-10 renal, above 100 µM; in the assay with LOX IMVI melanoma, above 100 µM; with MCF7 breast, above 100 µM; in the assay with SK-MEL-2 melanoma, above 100 µM. For the same molecule, the TGI with OVCAR-3 ovarian and in the assay with UACC-62 melanoma was above 100 µM throughout.
Turning to `CCOC(=O)COc1cc(-c2ccccc2F)nc2cc3c(cc12)OCO3`, the TGI in the assay on RXF 393 renal, in the assay with SK-MEL-28 melanoma, in the assay on TK-10 renal, with LOX IMVI melanoma, with MCF7 breast and with SK-MEL-2 melanoma was above 100 µM each time. Further, the TGI with UACC-62 melanoma and in the assay on HCC-2998 colon was above 100 µM each time.
As for `O=C1c2ccccc2N=C(c2cc3c(cc2Cl)Sc2nccn2S3(=O)=O)OS(=O)(=O)N1c1ccccc1`, the TGI was 84.7 µM in the assay with RXF 393 renal; above 100 µM in the assay with TK-10 renal; 60.7 µM in the assay on HL-60(TB) leukemia; 32 µM in the assay on LOX IMVI melanoma; 81.5 µM in the assay on MCF7 breast; above 100 µM in the assay with OVCAR-3 ovarian. For the same molecule, the TGI with UACC-62 melanoma came to 50.1 µM; in the assay on HCC-2998 colon it was 36 µM.
As for `C/C=C/CC(C(=O)OCC)(N(C)C(=O)OC(C)(C)C)S(=O)(=O)c1ccc(C)cc1` (centres undefined), the TGI in the assay with RXF 393 renal, in the assay with SK-MEL-28 melanoma, in the assay on TK-10 renal, in the assay on HL-60(TB) leukemia, in the assay on LOX IMVI melanoma and with MCF7 breast was above 100 µM throughout. For the same molecule, the TGI in the assay on SK-MEL-2 melanoma, with OVCAR-3 ovarian and in the assay with UACC-62 melanoma was above 100 µM throughout.
For the molecule `COc1ccc2[nH]c3cc4c(=O)c5cc(OC)ccc5[nH]c4cc3c(=O)c2c1`, the TGI with RXF 393 renal was above 100 µM; in the assay with SK-MEL-28 melanoma, above 100 µM; in the assay with TK-10 renal it was above 100 µM; in the assay on HL-60(TB) leukemia, 36.2 µM; in the assay with MCF7 breast, above 100 µM; in the assay on SK-MEL-2 melanoma, above 100 µM. The TGI in the assay on OVCAR-3 ovarian, with UACC-62 melanoma and with HCC-2998 colon was above 100 µM each time.
As for `C/C=C1\CC(C(=O)OCC)CCCCCCC1=O` (centres undefined), the TGI in the assay with RXF 393 renal, with SK-MEL-28 melanoma, in the assay on TK-10 renal, in the assay with HL-60(TB) leukemia, in the assay with LOX IMVI melanoma and in the assay with MCF7 breast was above 100 µM each time. Also, the TGI in the assay on SK-MEL-2 melanoma and with UACC-62 melanoma was above 100 µM throughout.
Regarding `COc1ccc(-c2nc(-c3ccc(OC)cc3)n(-c3ccccc3)n2)cc1`, the TGI with RXF 393 renal, in the assay on SK-MEL-28 melanoma, in the assay with TK-10 renal, with HL-60(TB) leukemia, with LOX IMVI melanoma and in the assay with MCF7 breast was above 100 µM in each case. The TGI in the assay with SK-MEL-2 melanoma, with OVCAR-3 ovarian and in the assay on UACC-62 melanoma was above 100 µM throughout.
Take `CN(C(=O)[C@H](NC(=O)OCc1ccccc1)c1ccccc1)C1CCCCC1N1CCCC1` (some centres undefined): the TGI with RXF 393 renal, with SK-MEL-28 melanoma, with TK-10 renal, in the assay on LOX IMVI melanoma, in the assay on MCF7 breast and in the assay on SK-MEL-2 melanoma was above 100 µM in each case. The TGI in the assay on OVCAR-3 ovarian and in the assay with UACC-62 melanoma was above 100 µM in each case.
Regarding `CC(=O)O[C@@H]1[C@H](OC2CCCCC2(c2ccccc2)c2ccccc2)O[N+]([O-])=CC12CCCCC2` (some centres undefined), the TGI worked out at 32.6 µM in the assay with RXF 393 renal; 27 µM in the assay with SK-MEL-28 melanoma; 30.4 µM in the assay with TK-10 renal; 5.65 µM in the assay on HL-60(TB) leukemia; 46.2 µM with LOX IMVI melanoma; 33.9 µM with MCF7 breast. Besides, the TGI in the assay with OVCAR-3 ovarian is 28.1 µM; with UACC-62 melanoma, 32.6 µM; in the assay with HCC-2998 colon, 32.6 µM.
Consider `O=[N+]([O-])c1cc(Br)cc2cc(Cl)cnc12`, for which the TGI in the assay with RXF 393 renal, in the assay on SK-MEL-28 melanoma, with TK-10 renal, with HL-60(TB) leukemia, in the assay on LOX IMVI melanoma and with MCF7 breast was above 100 µM each time. The TGI with OVCAR-3 ovarian, with UACC-62 melanoma and in the assay on HCC-2998 colon was above 100 µM in each case.
In the case of `Cc1ccsc1/C=N/NC1=NCCN1`, the TGI with RXF 393 renal, in the assay on SK-MEL-28 melanoma, in the assay on TK-10 renal, with LOX IMVI melanoma, in the assay with MCF7 breast and in the assay with SK-MEL-2 melanoma was above 100 µM in each case. Moreover, the TGI in the assay on OVCAR-3 ovarian, with UACC-62 melanoma and in the assay with HCC-2998 colon was above 100 µM each time.
As for `O=Cc1c2c(cc3c1CC1(C3)Cc3cc4c(c(C=O)c3C1)CCCC4)CCCC2`, the TGI was above 31.6 µM in the assay on RXF 393 renal; above 100 µM in the assay on SK-MEL-28 melanoma; above 31.6 µM in the assay on TK-10 renal; above 100 µM with HL-60(TB) leukemia; above 31.6 µM in the assay on LOX IMVI melanoma; above 31.6 µM in the assay on MCF7 breast. The TGI in the assay on OVCAR-3 ovarian, in the assay on UACC-62 melanoma and with HCC-2998 colon was above 31.6 µM each time.
With `N/C(=N\N=C\c1cc2ccccc2s1)c1cnccn1`, the TGI in the assay with RXF 393 renal, in the assay with SK-MEL-28 melanoma, with TK-10 renal, with HL-60(TB) leukemia, with LOX IMVI melanoma and with MCF7 breast was above 100 µM throughout. In addition, the TGI in the assay on SK-MEL-2 melanoma, with OVCAR-3 ovarian and in the assay with UACC-62 melanoma was above 100 µM throughout.
Regarding `Cc1sc2c(c1C)C(=O)c1cccn1-2`, the TGI with RXF 393 renal, in the assay with SK-MEL-28 melanoma, in the assay with TK-10 renal, in the assay on LOX IMVI melanoma, in the assay on MCF7 breast and in the assay on SK-MEL-2 melanoma was above 100 µM in each case. Further, the TGI in the assay on OVCAR-3 ovarian, in the assay on UACC-62 melanoma and in the assay with HCC-2998 colon was above 100 µM in each case.
With `COc1c(C)c(C/C=C(\C)CC/C=C(\C)CC/C=C(\C)CCC=C(C)C)c(OC)c(OC)c1OC`, the TGI in the assay with RXF 393 renal, with TK-10 renal, in the assay on LOX IMVI melanoma, with MCF7 breast, in the assay on SK-MEL-2 melanoma and in the assay on OVCAR-3 ovarian was above 100 µM each time. In addition, the TGI in the assay with UACC-62 melanoma and in the assay with HCC-2998 colon was above 100 µM each time.
On to `Cn1c(N/N=C/c2ccccc2)nc(-c2ccc3c(c2)OCO3)c(C#N)c1=O`, for which the TGI in the assay on RXF 393 renal, in the assay with SK-MEL-28 melanoma, in the assay with TK-10 renal, in the assay on HL-60(TB) leukemia, in the assay with LOX IMVI melanoma and in the assay with MCF7 breast was above 100 µM in each case. The TGI in the assay with SK-MEL-2 melanoma was above 100 µM; in the assay with OVCAR-3 ovarian it was 90.6 µM; with UACC-62 melanoma, above 100 µM.
Turning to `NC(Cc1ccc(O)cn1)C(=O)NC(C(=O)O)c1ccccc1` (centres undefined), the TGI in the assay with RXF 393 renal, in the assay on SK-MEL-28 melanoma, in the assay with TK-10 renal, in the assay on HL-60(TB) leukemia, in the assay with LOX IMVI melanoma and in the assay with MCF7 breast was above 100 µM throughout. The TGI in the assay with OVCAR-3 ovarian and in the assay on HCC-2998 colon was above 100 µM each time.
Consider `CC(=N/NC(=S)N1CCCCCC1)/C(C)=N\NC(=S)N1CCCCCC1`, for which the TGI is 8.88 µM with RXF 393 renal; 3.56 µM with SK-MEL-28 melanoma; 8.87 µM in the assay with TK-10 renal; above 25.1 µM in the assay with MCF7 breast; 14.3 µM in the assay with OVCAR-3 ovarian; 12.7 µM with UACC-62 melanoma. The TGI in the assay on HCC-2998 colon was 18.6 µM.
For the molecule `N=c1c2sc3nc4ccccc4n3c2ncn1Cc1ccccc1`, the TGI with RXF 393 renal, in the assay on SK-MEL-28 melanoma, in the assay on TK-10 renal, with LOX IMVI melanoma, in the assay on MCF7 breast and in the assay on SK-MEL-2 melanoma was above 100 µM each time. The TGI with OVCAR-3 ovarian, in the assay on UACC-62 melanoma and with HCC-2998 colon was above 100 µM in each case.
For `Cc1cc(OCc2nc(N)nc(N)c2-c2ccc(Cl)c(Cl)c2)ccc1[N+](=O)[O-]`, the TGI in the assay on RXF 393 renal turned out to be 21.6 µM; with SK-MEL-28 melanoma, 40.8 µM; in the assay with TK-10 renal it was 13.4 µM; in the assay with HL-60(TB) leukemia, 3.56 µM; in the assay with LOX IMVI melanoma it was 37.8 µM; with MCF7 breast it was 8.15 µM. Further, the figures for the TGI in the assay with SK-MEL-2 melanoma, in the assay with OVCAR-3 ovarian and in the assay with UACC-62 melanoma were 15.1 µM, 3.29 µM and 1.88 µM, respectively.
Turning to `CN1C(=O)N(C)C2(CCN(CC(CC3OCCO3)c3ccc(F)cc3)CC2)C1=O` (centres undefined), the TGI in the assay with RXF 393 renal, in the assay on SK-MEL-28 melanoma, with TK-10 renal, in the assay on HL-60(TB) leukemia, in the assay with LOX IMVI melanoma and in the assay on MCF7 breast was above 100 µM each time. The TGI with SK-MEL-2 melanoma, in the assay on OVCAR-3 ovarian and in the assay with UACC-62 melanoma was above 100 µM each time.
